Data as given in patent publication US12172983B2, “EGFR inhibitors” (Blueprint Medicines Corporation, priority 2019, dated 2024).

Tests used:
[1] = molecular target: T1, EGFR (D770_N771insNPG T790M) (Homo sapiens, UniProt P00533, INS770NPG/T790M); assay: Biochemical EGFR inhibition assay (mobility shift), EGFR D770_N771insNPG T790M; conditions: inhibitory activity against EGFR_D770_N771insNPG/T790M mutant; apparent IC50; read-out: Enz EGFR_D770_N771insNPG/T790M
T1 construct: purchased SignalChem E10-132TG
T1 sequence (P00533 with tags, fused parts or gaps INS770NPG/T790M limits assumed): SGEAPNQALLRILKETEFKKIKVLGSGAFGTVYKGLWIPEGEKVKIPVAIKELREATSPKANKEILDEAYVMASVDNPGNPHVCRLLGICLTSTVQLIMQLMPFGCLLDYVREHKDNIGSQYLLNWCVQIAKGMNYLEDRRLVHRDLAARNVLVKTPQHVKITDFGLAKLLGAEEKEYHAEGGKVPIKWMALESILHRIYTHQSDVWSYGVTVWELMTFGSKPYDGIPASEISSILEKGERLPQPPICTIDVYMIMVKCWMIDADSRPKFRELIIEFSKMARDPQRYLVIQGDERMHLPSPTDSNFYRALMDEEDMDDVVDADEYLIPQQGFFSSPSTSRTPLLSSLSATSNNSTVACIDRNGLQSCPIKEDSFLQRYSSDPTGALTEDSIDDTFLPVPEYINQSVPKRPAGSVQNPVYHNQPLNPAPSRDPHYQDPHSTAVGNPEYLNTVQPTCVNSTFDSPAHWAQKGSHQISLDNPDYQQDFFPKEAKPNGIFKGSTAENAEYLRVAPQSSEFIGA
Method: Inhibitory effects of the compounds of the disclosure were measured in biochemical assays that measure the phosphorylation activity of EGFR enzyme phosphorylates 2.5 micromolar 5-FAM-[…]-CONH2 peptide substrate (FL-Peptide 22, PerkinElmer, 760366) in the presence of adenosine-5′-triphosphate (ATP) and varying concentrations of the test compound. […] Reactions proceeded until between 10% to 20% total peptides were phosphorylated at room temperature (25° C.) and were terminated with 35 mM 2,2′,2″,2′″-(ethane-1,2-diyldinitrilo)tetraacetic acid (EDTA). EGFR enzymatic activity was monitored using the Perkin Elmer electrophoretic mobility shift technology platform (the Caliper mobility shift detection method) where the phosphorylated peptide (product) and substrate were electrophoretically separated and measured. Percent activity was plotted against log concentration of compound and points to generate an apparent IC50. The following enzyme forms of EGFR were examples that were used in these assays: • EGFR WT (SignalChem, E10-112G) • EGFR (L858R T790M C797S) (SignalChem, E10-122VG) • EGFR (d746-750) T790M C797S (SignalChem, E10-122UG) • EGFR L858R (SignalChem, E10-122BG) • EGFR (d746-750) (SignalChem, E10-122JG) • EGFR (D770_N771insNPG T790M) (SignalChem, E10-132TG) • EGFR (D770_N771insNPG) (SignalChem, E10-132GG)

[2] = test system: phosphorylation of EGFR (Tyr1068) in NCI-H1975 cell line that harbors the EGFR L858R T790M mutations; assay: NCI-H1975 pEGFR AlphaLISA assay; type: cell-based; conditions: Homo sapiens, NCI-H1975, inhibition of phosphorylation of mutant EGFR in NCI-H1975 cells; 4-5 hours incubation; read-out: Ext pEGFR H1975
Summary of the method: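 Phospho-EGFR Tyr1068 AlphaLISA readout: lysates taken from compound-treated H1975 cells (L858R T790M EGFR) after a 4-5 h exposure at 37 °C. Cells had adhered overnight beforehand. IC50 derived by plotting % pEGFR inhibition against log compound concentration.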

[3] = molecular target: T2, EGFR (L858R T790M C797S) (Homo sapiens, UniProt P00533, C797S/L858R/T790M); assay: Biochemical EGFR inhibition assay (Caliper mobility shift), EGFR LRTMCS mutant; conditions: inhibitory activity against EGFR LRTMCS mutant; apparent IC50; read-out: Ext Enz LRTMCS
T2 construct: purchased SignalChem E10-122VG
T2 sequence (P00533 25-1210 T790M/C797S/L858R): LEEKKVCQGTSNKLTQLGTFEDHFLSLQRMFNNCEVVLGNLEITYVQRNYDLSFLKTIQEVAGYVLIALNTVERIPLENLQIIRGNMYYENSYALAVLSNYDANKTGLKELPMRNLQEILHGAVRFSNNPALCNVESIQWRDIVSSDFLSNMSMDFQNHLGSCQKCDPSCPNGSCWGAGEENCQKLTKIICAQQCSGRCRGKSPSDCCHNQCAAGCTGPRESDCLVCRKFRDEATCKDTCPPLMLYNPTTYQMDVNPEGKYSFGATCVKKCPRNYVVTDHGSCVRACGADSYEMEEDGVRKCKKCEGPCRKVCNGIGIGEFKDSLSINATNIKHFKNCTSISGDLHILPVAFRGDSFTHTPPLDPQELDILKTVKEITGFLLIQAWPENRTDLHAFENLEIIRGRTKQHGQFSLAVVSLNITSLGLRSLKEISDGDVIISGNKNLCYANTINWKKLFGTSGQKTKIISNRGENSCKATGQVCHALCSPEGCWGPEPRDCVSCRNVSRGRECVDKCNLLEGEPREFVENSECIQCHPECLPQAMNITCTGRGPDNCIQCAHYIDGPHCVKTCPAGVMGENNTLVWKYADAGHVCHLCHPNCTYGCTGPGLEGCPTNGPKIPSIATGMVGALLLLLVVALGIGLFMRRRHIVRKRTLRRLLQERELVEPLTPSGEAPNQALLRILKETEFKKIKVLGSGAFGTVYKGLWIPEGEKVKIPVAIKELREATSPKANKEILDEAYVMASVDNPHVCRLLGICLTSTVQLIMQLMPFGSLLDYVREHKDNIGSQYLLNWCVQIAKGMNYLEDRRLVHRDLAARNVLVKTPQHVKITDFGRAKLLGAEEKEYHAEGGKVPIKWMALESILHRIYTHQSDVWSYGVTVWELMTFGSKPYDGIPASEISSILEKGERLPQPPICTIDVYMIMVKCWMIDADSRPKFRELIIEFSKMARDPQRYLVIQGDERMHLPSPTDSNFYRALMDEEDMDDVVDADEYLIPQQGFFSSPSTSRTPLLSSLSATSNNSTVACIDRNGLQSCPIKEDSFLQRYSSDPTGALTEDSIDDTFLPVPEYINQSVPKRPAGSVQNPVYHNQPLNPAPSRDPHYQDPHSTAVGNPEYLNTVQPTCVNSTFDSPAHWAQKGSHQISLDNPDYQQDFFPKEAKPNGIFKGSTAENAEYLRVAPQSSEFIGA
Summary of the method: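 Caliper mobility shift read-out: product and substrate peptides separated by electrophoresis and quantified. Reactions at 25° C. taken to 10–20% peptide phosphorylation, quenched with 35 mM EDTA. Apparent IC50 from percent activity vs log [compound].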

[4] = test system: pEGFR_LR/TM/G796S mutant EGFR expressing Ba/F3 cells; assay: pEGFR_LR/TM/G796S AlphaLISA assay in Ba/F3 cells; type: cell-based; conditions: Mus musculus, BaF3, 4 hrs incubation, geometric mean, read-out: Ext pEGFR_LR/TM/G796S GMean IC50
Method: Mutant EGFR expressing Ba/F3 cells were resuspended in fresh 10% FBS RPMI and plated at 1.0×10^6 cells/mL. On the next day, the cells were harvested and diluted in fresh medium at 1.25×10^6 cells/mL. 40 μL of cells were added to each well of a 384-well microplate (Corning 3764). In a clear 384-well polypropylene microplate, test compounds and DMSO were added. DMSO was a negative control and staurosporine was a positive control. The cell plate was placed in a humidified 37° C. incubator for 4 hrs. The cell plate was spun to pellet the cells and the media was removed. 10 μL of 1×AlphaLISA Lysis Buffer with 1× protease and phosphatase inhibitors was added to the cells and plate was shaken at 600 rpm for 30 min. The cell lysates were transferred from cell plate to a white opaque 384-well microplate (OptiPlate-384). 5 μL of acceptor mix was added to the cell lysate and the plate was shaken at 600 rpm for 10 min, gently tapped and sealed with foil. It was then incubated at RT for 1.5-2 hr. Under low light conditions, lx donor mix was prepared right prior to use. 5 μL of donor mix was added to the plate under subdued lighting or green filters. The plate was shaken at 600 rpm for 10 min, gently tapped and sealed with foil. It was then incubated overnight at RT in dark. After overnight incubation, the plate was read on an EnVision Multilabel Reader. All IC50 representative curves were plotted using GraphPad Prism (version 8.00 for Windows, GraphPad Software, San Diego California USA). The percentage of inhibition on EGFR phosphorylation was calculated following equation below: […]
An IC50 was calculated by fitting the curve using Nonliner fit with log(inhibitor) vs. response−Variable slope (four parameters) model.

Compound | IC50 [1] | IC50 [2] | IC50 [3] | IC50 [4]
[2H]C([2H])([2H])O[C@@H]1CCN(c2nccc(Nc3cc4c(C(C)C)ncc(N5CC(CS(C)(=O)=O)C5)c4cn3)n2)C[C@@H]1F [Compound 265, N-{2-[(3S,4R)-3-fluoro-4-(^2H3)methoxypiperidin-1-yl]pyrimidin-4-yl}-8-[3-(methanesulfonylmethyl)azetidin-1-yl]-5-(propan-2-yl)-2,6-naphthyridin-3-amine] | 100 to 250 nM | ≤ 10 nM | ≤ 15 nM | –
CC(C)c1cnc(N2CC(CS(C)(=O)=O)C2)c2cnc(Nc3ccnc(N4C[C@@H](F)[C@@H](F)C4)n3)cc12 [Compound 7, N-{2-[cis-3,4-difluoropyrrolidin-1-yl]pyrimidin-4-yl}-8-[3-(methanesulfonylmethyl)azetidin-1-yl]-5-(propan-2-yl)-2,7-naphthyridin-3-amine] | 250 to 750 nM | 10.1 to 20 nM | ≤ 15 nM | –
CC(C)c1cnc(N2CC(CS(C)(=O)=O)C2)c2cnc(Nc3ccnc(N4CCOCC4)n3)cc12 [Compound 2, 8-[3-(methanesulfonylmethyl)azetidin-1-yl]-N-[2-(morpholin-4-yl)pyrimidin-4-yl]-5-(propan-2-yl)-2,7-naphthyridin-3-amine] | 250 to 750 nM | 30.1 to 50 nM | ≤ 15 nM | –
[2H]C([2H])([2H])O[C@H]1CCN(c2nccc(Nc3cc4c(C(C)C)ccc(N5C[C@H](CS(C)(=O)=O)[C@H]5C)c4cn3)n2)C[C@H]1F (single isomer, unassigned) [Compound 283] | – | ≤ 10 nM | – | 20.1 to 100 nM
[2H]C([2H])([2H])O[C@@H]1CCN(c2nccc(Nc3cc4c(C(C)C)ccc(N5C[C@H](CS(C)(=O)=O)[C@H]5C)c4cn3)n2)C[C@@H]1F (single isomer, unassigned) [Compound 282] | – | ≤ 10 nM | – | 20.1 to 100 nM
CCS(=O)(=O)CC1CN(c2ccc(C(C)C)c3cc(Nc4ccnc(N5C[C@@H](O)[C@@H](OC)C(F)(F)C5)n4)ncc23)C1 (single isomer, unassigned) [Compound 294, (3R,4R)-1-{4-[(8-{3-[(ethanesulfonyl)methyl]azetidin-1-yl}-5-(propan-2-yl)isoquinolin-3-yl)amino]pyrimidin-2-yl}-5,5-difluoro-4-methoxypiperidin-3-ol or (3S,4S)-1-{4-[(8-{3-[(ethanesulfonyl)methyl]azetidin-1-yl}-5-(propan-2-yl)isoquinolin-3-yl)amino]pyrimidin-2-yl}-5,5-difluoro-4-methoxypiperidin-3-ol] | – | ≤ 10 nM | 20.1 to 30 nM | –

More lines, now with the values ahead:

IC50 [1] | IC50 [2] | IC50 [3] | IC50 [4] | Compound
– | ≤ 10 nM | – | ≤ 20 nM | CC(C)c1ccc(N2CC(CS(C)(=O)=O)C2)c2cnc(Nc3ccnc(N4CC[C@@H](O)[C@@](C)(F)C4)n3)cc12 (single isomer, unassigned) [Compound 55]
– | ≤ 10 nM | ≤ 15 nM | 250 to 750 nM | CC(C)c1ccc(N2C[C@H](CS(C)(=O)=O)[C@H]2C)c2cnc(Nc3ccnc(N4CC[C@](C)(O)[C@H](F)C4)n3)cc12 (single isomer, unassigned) [Compound 118]
– | ≤ 10 nM | ≤ 15 nM | 250 to 750 nM | CC(C)c1ccc(N2C[C@H](CS(C)(=O)=O)[C@H]2C)c2cnc(Nc3ccnc(N4CC[C@@](C)(O)[C@@H](F)C4)n3)cc12 (single isomer, unassigned) [Compound 117]
20.1 to 100 nM | ≤ 10 nM | ≤ 15 nM | – | CC(C)c1cnc(N2C[C@@H](CS(C)(=O)=O)[C@@H]2C)c2cnc(Nc3ccnc(N4CC[C@@H](O)[C@@](C)(F)C4)n3)cc12 (single isomer, unassigned) [Compound 128]
– | ≤ 10 nM | – | 20.1 to 100 nM | CC(C)c1ccc(N2C[C@H](CS(C)(=O)=O)[C@H]2C)c2cnc(Nc3ccnc(N4CC[C@@H](O)[C@@](C)(F)C4)n3)cc12 (single isomer, unassigned) [Compound 111]
